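Where inhibition never reached the appropriate level, the endpoint shown equals the highest concentration tested. Otherwise, values were interpolated linearly from a five-concentration, 48-hour dose response in 96-well plates. Abbreviation: GI50, concentration required for 50% inhibition of growth.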 Calls of active or inactive are those of the source. Rule as the data show it: active = GI50 up to about 1.1 µM and inactive = higher.
Assays:
Assay in all cases: NCI-60 cell line screen, 48 h
SK-MEL-5 = system: SK-MEL-5
HOP-92 = system: HOP-92
NCI-H23 = system: NCI-H23
SK-MEL-28 = system: SK-MEL-28
UACC-257 = system: UACC-257
DMS-114 = system: DMS-114
HOP-18 = system: HOP-18
SF-268 = system: SF-268
SF-539 = system: SF-539
XF498 = system: XF498
786-0 = system: 786-0
NCI-H460 = system: NCI-H460
NCI-H522 = system: NCI-H522
MOLT-4 = system: MOLT-4
LXFL 529 = system: LXFL 529
HT-29 = system: HT-29
Malme-3M = system: Malme-3M
UACC-62 = system: UACC-62
HCT-15 = system: HCT-15
CCRF-CEM = system: CCRF-CEM
HL-60 = system: HL-60
OVCAR-8 = system: OVCAR-8
ACHN = system: ACHN
KM-20L2 = system: KM-20L2
U-251 = system: U-251
SW-620 = system: SW-620
HOP-62 = system: HOP-62
NCI-H226 = system: NCI-H226
SK-OV-3 = system: SK-OV-3
DMS-273 = system: DMS-273
TK-10 = system: TK-10
SNB-78 = system: SNB-78
KM12 = system: KM12
OVCAR-3 = system: OVCAR-3
COLO 205 = system: COLO 205
K562 = system: K562
RXF 393 = system: RXF 393
M19-MEL = system: M19-MEL
SF-295 = system: SF-295
RPMI-8226 = system: RPMI-8226
SR = system: SR
HCT-116 = system: HCT-116
IGROV-1 = system: IGROV-1
EKVX = system: EKVX
LOX IMVI = system: LOX IMVI
OVCAR-5 = system: OVCAR-5
OVCAR-4 = system: OVCAR-4
A549 = system: A549
SNB-19 = system: SNB-19
CAKI-1 = system: CAKI-1
HCC 2998 = system: HCC 2998
UO-31 = system: UO-31
A498 = system: A498
M14 = system: M14
SN12C = system: SN12C
SNB-75 = system: SNB-75
SK-MEL-2 = system: SK-MEL-2
DLD-1 = system: DLD-1
RXF 631 = system: RXF 631

Measured: GI50

C=C1C(=O)OC2/C=C(\C)C(OC(C)=O)C3OC3C(C)(O)CC(OC(=O)/C(C)=C/C)C12 (configuration not stated)
active: SW-620 < 0.01 µM
12.8 µM: HCT-15
inactive: SK-MEL-5 13.7 µM | HOP-92 5.52 µM | NCI-H23 12.8 µM | SK-MEL-28 4.95 µM | UACC-257 14.7 µM | DMS-114 5.45 µM | HOP-18 11.3 µM | SF-268 10.9 µM | SF-539 3.67 µM | XF498 6.87 µM | 786-0 4.73 µM | NCI-H460 15.7 µM | NCI-H522 1.62 µM | MOLT-4 5.05 µM | LXFL 529 2.44 µM | HT-29 14.9 µM | Malme-3M 8.69 µM | UACC-62 11 µM | CCRF-CEM 2.81 µM | HL-60 2.51 µM | OVCAR-8 9.93 µM | ACHN 13.5 µM | KM-20L2 4.46 µM | U-251 12.1 µM | HOP-62 19.1 µM | NCI-H226 10 µM | SK-OV-3 20.1 µM | DMS-273 24.5 µM | TK-10 11.9 µM | SNB-78 8.3 µM | KM12 14.7 µM | OVCAR-3 3.9 µM | COLO 205 3.86 µM | K562 4.35 µM | RXF 393 3.85 µM | M19-MEL 8.49 µM | SF-295 19.1 µM | RPMI-8226 4.91 µM | SR 2.96 µM | HCT-116 2.16 µM | IGROV-1 16.9 µM | EKVX 18.3 µM | LOX IMVI 15.3 µM | OVCAR-5 17.4 µM | OVCAR-4 33.8 µM | A549 18.7 µM | SNB-19 18.7 µM | CAKI-1 2.38 µM | HCC 2998 8.38 µM | UO-31 11 µM | A498 15.8 µM | M14 4.65 µM | SN12C 20 µM | SNB-75 21.9 µM | SK-MEL-2 6.59 µM

COc1cc(Cl)c2c3c(c(C(=O)c4ccccc4)oc13)CCC2
active: HOP-92 < 0.01 µM
> 100 µM: HCT-15
inactive: SK-MEL-5 > 100 µM | NCI-H23 > 100 µM | SK-MEL-28 > 100 µM | UACC-257 > 100 µM | DMS-114 > 100 µM | HOP-18 > 100 µM | SF-539 > 100 µM | DLD-1 > 100 µM | XF498 > 100 µM | 786-0 > 100 µM | NCI-H460 > 100 µM | MOLT-4 > 100 µM | LXFL 529 > 100 µM | HT-29 > 100 µM | UACC-62 > 100 µM | CCRF-CEM > 100 µM | HL-60 53.6 µM | OVCAR-8 > 100 µM | ACHN > 100 µM | KM-20L2 > 100 µM | U-251 > 100 µM | SW-620 > 100 µM | HOP-62 > 100 µM | SK-OV-3 > 100 µM | DMS-273 69.7 µM | TK-10 > 100 µM | SNB-78 > 100 µM | OVCAR-3 > 100 µM | COLO 205 > 100 µM | K562 41.7 µM | RXF 393 62.5 µM | M19-MEL > 100 µM | SF-295 > 100 µM | RPMI-8226 > 100 µM | HCT-116 > 100 µM | IGROV-1 > 100 µM | EKVX > 100 µM | LOX IMVI > 100 µM | OVCAR-4 > 100 µM | A549 > 100 µM | SNB-19 > 100 µM | CAKI-1 > 100 µM | HCC 2998 > 100 µM | A498 > 100 µM | M14 > 100 µM | SN12C > 100 µM | SNB-75 > 100 µM

COC(=O)[C@H]1N[C@@H](C(=O)OC)C23CCC[C@H]2CC[C@]1(C(OC)OC)C3
inactive: SK-MEL-5 > 100 µM | HOP-92 > 100 µM | NCI-H23 > 100 µM | SK-MEL-28 > 100 µM | UACC-257 > 100 µM | DMS-114 > 100 µM | HOP-18 > 100 µM | SF-268 > 100 µM | SF-539 > 100 µM | DLD-1 > 100 µM | XF498 > 100 µM | 786-0 81.1 µM | NCI-H460 > 100 µM | NCI-H522 > 100 µM | MOLT-4 > 100 µM | LXFL 529 > 100 µM | HT-29 > 100 µM | Malme-3M > 100 µM | UACC-62 > 100 µM | CCRF-CEM > 100 µM | HL-60 > 100 µM | OVCAR-8 > 100 µM | ACHN > 100 µM | KM-20L2 > 100 µM | U-251 > 100 µM | SW-620 56.2 µM | HOP-62 > 100 µM | NCI-H226 > 100 µM | SK-OV-3 > 100 µM | DMS-273 > 100 µM | TK-10 > 100 µM | SNB-78 > 100 µM | KM12 > 100 µM | COLO 205 87.7 µM | K562 73.6 µM | M19-MEL > 100 µM | SF-295 > 100 µM | RPMI-8226 > 100 µM | HCT-116 > 100 µM | IGROV-1 > 100 µM | EKVX > 100 µM | LOX IMVI > 100 µM | OVCAR-5 > 100 µM | OVCAR-4 > 100 µM | A549 > 100 µM | SNB-19 > 100 µM | CAKI-1 > 100 µM | HCC 2998 > 100 µM | UO-31 > 100 µM | A498 > 100 µM | M14 > 100 µM | SN12C > 100 µM | SNB-75 > 100 µM | SK-MEL-2 > 100 µM
> 100 µM: HCT-15

COC(=O)C1=C(C(=O)OC)C2(c3ccccc3)OC1(c1ccccc1)c1cc3ccccc3cc12
inactive: SK-MEL-5 2.21 µM | NCI-H23 1.92 µM | SK-MEL-28 1.87 µM | HOP-18 1.22 µM | SF-268 1.73 µM | SF-539 1.67 µM | DLD-1 1.74 µM | 786-0 1.4 µM | NCI-H460 3.56 µM | NCI-H522 1.23 µM | LXFL 529 1.22 µM | HT-29 1.77 µM | Malme-3M 1.6 µM | UACC-62 1.85 µM | RXF 631 1.88 µM | OVCAR-8 1.56 µM | ACHN 1.68 µM | KM-20L2 1.88 µM | U-251 6.43 µM | SW-620 1.76 µM | HOP-62 13.3 µM | SK-OV-3 11.2 µM | DMS-273 1.76 µM | TK-10 2.05 µM | KM12 1.97 µM | OVCAR-3 1.37 µM | COLO 205 2.11 µM | K562 1.51 µM | RXF 393 1.29 µM | M19-MEL 1.98 µM | SF-295 6.28 µM | IGROV-1 1.9 µM | EKVX 1.8 µM | LOX IMVI 1.32 µM | OVCAR-5 1.91 µM | OVCAR-4 1.7 µM | A549 2.43 µM | SNB-19 4.2 µM | CAKI-1 1.29 µM | HCC 2998 1.95 µM | UO-31 1.42 µM | M14 1.79 µM | SN12C 1.9 µM | SK-MEL-2 1.64 µM
active: HOP-92 1.09 µM | MOLT-4 0.733 µM | CCRF-CEM 0.451 µM | HL-60 0.45 µM | RPMI-8226 0.764 µM | SNB-75 0.604 µM
1.82 µM: HCT-15

Cc1cc2c(cn1)C(=O)OCC2
inactive: NCI-H23 > 100 µM | SK-MEL-28 > 100 µM | UACC-257 > 100 µM | DMS-114 > 100 µM | HOP-18 > 100 µM | SF-268 > 100 µM | SF-539 > 100 µM | DLD-1 > 100 µM | XF498 > 100 µM | 786-0 > 100 µM | NCI-H460 > 100 µM | MOLT-4 > 100 µM | LXFL 529 > 100 µM | HT-29 > 100 µM | Malme-3M > 100 µM | UACC-62 > 100 µM | CCRF-CEM > 100 µM | HL-60 > 100 µM | OVCAR-8 > 100 µM | ACHN > 100 µM | KM-20L2 > 100 µM | U-251 > 100 µM | SW-620 > 100 µM | HOP-62 > 100 µM | NCI-H226 > 100 µM | SK-OV-3 > 100 µM | TK-10 > 100 µM | SNB-78 > 100 µM | KM12 > 100 µM | OVCAR-3 > 100 µM | K562 > 100 µM | RXF 393 > 100 µM | M19-MEL > 100 µM | SF-295 > 100 µM | RPMI-8226 > 100 µM | SR > 100 µM | HCT-116 > 100 µM | IGROV-1 > 100 µM | EKVX > 100 µM | LOX IMVI > 100 µM | OVCAR-5 > 100 µM | OVCAR-4 > 100 µM | A549 > 100 µM | SNB-19 > 100 µM | HCC 2998 > 100 µM | UO-31 > 100 µM | A498 > 100 µM | M14 > 100 µM | SN12C > 100 µM | SNB-75 > 100 µM
